Experimental data: US7671054B1, “Reverse-turn mimetics and method relating thereto” (Choongwae Pharma Corporation, priority 2001, dated 2010)

Test system: TCF4/β-catenin transcription (TOPFlash) in SW480 cells
Experiment: Reporter gene assay (TOPFlash luciferase)
Assay type: cell-based
Settings: Homo sapiens, SW480, Table 4; Reporter gene assay as described in Example 6; read-out: IC50
Experimental: SW480 cells were transfected with the usage of Superfect™ transfect reagent (Qiagen, 301307). Cells were trypsinized briefly 1 day before transfection and plated on 6 well plate (5×10^5 cells/well) so that they were 50-80% confluent on the day of transfection.
Four microgram (TOPFlash) and one microgram (pRL-null) of DNAs were diluted in 150 μl of serum-free medium, and 30 μl of Superfect™ transfect reagent was added. The DNA-Superfect mixture was incubated at room temperature for 15 min, and then, 1 ml of 10% FBS DMEM was added to this complex for an additional 3 hours of incubation. While complexes were forming, cells were washed with PBS twice without antibiotics.
The DNA-Superfect™ transfect reagent complexes were applied to the cells before incubating at 37° C. at 5% CO2 for 3 hours. After incubation, recovery medium with 10% FBS was added to bring the final volume to 1.18 ml. After 3 hours incubation, the cells were harvested and reseeded to 96 well plate (3×10^4 cells/well). After overnight incubation at 37° C. at 5% CO2, the cells were treated with Compound A for 24 hours. Finally, the activity was checked by means of luciferase assay (Promega, E1960).

IC50 [µM]	SMILES
2.4 ± 0.3	COC(=O)c1ccccc1Cn1ncc2c(CN3C[C@H]4N(C(=O)CN(C)N4C(=O)NCc4ccccc4)[C@@H](Cc4ccc(O)cc4)C3=O)cccc21 [Compound 99]
16.7 ± 1.4	C#CCN1CC(=O)N2[C@@H](Cc3ccc(O)cc3)C(=O)N(Cc3ccc4c(c3)OCCN4C)C[C@@H]2N1C(=O)NCc1ccccc1 [Compound 146]
5.4 ± 1	C=CCN1CC(=O)N2[C@@H](Cc3ccc(O)cc3)C(=O)N(Cc3cccc4sc(C(=O)OCC)nc34)C[C@@H]2N1C(=O)NCc1ccccc1 [Compound 224]
4.2	CN1CC(=O)N2C(CN(Cc3cccc(C(F)(F)F)c3)C(=O)[C@@H]2Cc2ccc(O)cc2)N1C(=O)NCc1ccccc1 (stereo partly drawn) [Compound 15]
12.7 ± 0.7	CN1CC(=O)N2[C@@H](Cc3ccc(O)cc3)C(=O)N(Cc3cccc(N4CCCC4=O)c3)C[C@@H]2N1C(=O)NCc1ccccc1 [Compound 150]
0.8 ± 0.1	C#CCN1CC(=O)N2[C@@H](Cc3ccc(O)cc3)C(=O)N(Cc3cccc(N4CCOCC4)c3)C[C@@H]2N1C(=O)NCc1ccccc1 [Compound 118]
2.6 ± 0.3	CCCN1CC(=O)N2[C@@H](Cc3ccc(O)cc3)C(=O)N(Cc3ccc(Cl)c4cccnc34)C[C@@H]2N1C(=O)NCc1ccccc1 [Compound 148]
1 ± 0.2	C=CCN1CC(=O)N2[C@@H](Cc3ccc(O)cc3)C(=O)N(Cc3cccc4cccnc34)C[C@@H]2N1C(=O)NCc1ccc(Cl)c(Cl)c1 [Compound 199]
2.1 ± 0.2	C#CCN1CC(=O)N2[C@@H](Cc3ccc(O)cc3)C(=O)N(Cc3ccc(F)cc3F)C[C@@H]2N1C(=O)NCc1ccccc1 [Compound 144]
9.9 ± 2.6	CN1CC(=O)N2[C@@H](Cc3ccc(O)cc3)C(=O)N(Cc3ccc4cnn(Cc5ccccc5N)c4c3)C[C@@H]2N1C(=O)NCc1ccccc1 [Compound 86]
9.7 ± 1.7	CC(C)N(C)c1cc([C@@H](C)N2C[C@H]3N(C(=O)CN(C)N3C(=O)NCc3ccccc3)[C@@H](Cc3ccc(O)cc3)C2=O)ccc1F [Compound 62]
3 ± 0.4	CCN1CC(=O)N2[C@@H](Cc3ccc(O)cc3)C(=O)N(Cc3cccc4cccnc34)C[C@@H]2N1C(=O)NCc1ccccc1 [Compound 121]
2.6 ± 0.2	C#CCn1cc2cccc(CN3C[C@H]4N(C(=O)CN(C)N4C(=O)NCc4ccccc4)[C@@H](Cc4ccc(O)cc4)C3=O)c2n1 [Compound 106]
10.7 ± 2.5	CN1CC(=O)N2[C@@H](Cc3ccc(O)cc3)C(=O)N(Cc3cccc4c3nnn4C)C[C@@H]2N1C(=O)NCc1ccccc1 [Compound 76]
5.2	CN(C)c1ccccc1CN1C[C@H]2N(C(=O)CN(C)N2C(=O)NCc2ccccc2)[C@@H](Cc2ccc(O)cc2)C1=O [Compound 43]
11.5	CN1CC(=O)N2C(CN(Cc3ccc(Cl)cc3Cl)C(=O)[C@@H]2Cc2ccc(O)cc2)N1C(=O)NCc1ccccc1 (stereo partly drawn) [Compound 19]
13.3 ± 1.6	C=CCN1CC(=O)N2[C@@H](Cc3ccc(O)cc3)C(=O)N(Cc3cc(N(C)C(C)C)cc(C(F)(F)F)c3)C[C@@H]2N1C(=O)NCc1ccccc1 [Compound 156]
23.6 ± 5.6	CC(C)N(C)c1cc(CN2C[C@H]3N(C(=O)CN(C)N3C(=O)NCc3ccccc3)[C@@H](Cc3ccc(O)cc3)C2=O)ccc1Cl [Compound 54]
0.3 ± 0.04	C=CCN1CC(=O)N2[C@@H](Cc3ccc(O)cc3)C(=O)N(Cc3cccc4c3N(C)CCO4)C[C@@H]2N1C(=O)NCc1ccccc1 [Compound 145]
16.5 ± 4.8	CN(Cc1ccccc1)c1cccc(CN2C[C@H]3N(C(=O)CN(C)N3C(=O)NCc3ccccc3)[C@@H](Cc3ccc(O)cc3)C2=O)c1 [Compound 79]
7.3 ± 1.1	CN1CC(=O)N2[C@@H]([C@H](O)c3ccc(O)cc3)C(=O)N(Cc3ccc(F)cc3F)C[C@@H]2N1C(=O)NCc1ccccc1 [Compound 113]
5.8 ± 0.3	C[C@H](c1ccc(Cl)c2cccnc12)N1CC2N(C(=O)CN(C)N2C(=O)NCc2ccccc2)[C@@H](Cc2ccc(O)cc2)C1=O (stereo partly drawn) [Compound 198]
2.2 ± 0.3	C#CCN1CC(=O)N2[C@@H](Cc3ccc(O)cc3)C(=O)N(Cc3cccc(OCCN4CCOCC4)c3)C[C@@H]2N1C(=O)NCc1ccccc1 [Compound 131]
17.7	CN1CC(=O)N2C(CN(Cc3cc(F)ccc3F)C(=O)[C@@H]2Cc2ccc(O)cc2)N1C(=O)NCc1ccccc1 (stereo partly drawn) [Compound 14]
1.2 ± 0.3	C=CCN1CC(=O)N2[C@@H](Cc3ccc(O)cc3)C(=O)N(Cc3cccc(N4CCCC4=O)c3)C[C@@H]2N1C(=O)NCc1ccccc1 [Compound 152]
0.6 ± 0.1	C=CCN1CC(=O)N2[C@@H](Cc3ccc(O)cc3)C(=O)N(Cc3ccc(F)c4scnc34)C[C@@H]2N1C(=O)NCc1ccccc1 [Compound 223]

IC50 [µM]	SMILES
3.2 ± 0.4	C=CCN1CC(=O)N2[C@@H](Cc3ccc(O)cc3)C(=O)N(Cc3cccc(N(C)C(=O)CCCCC)c3)C[C@@H]2N1C(=O)NCc1ccccc1 [Compound 194]
0.6 ± 0.1	C=CCN1CC(=O)N2[C@@H](Cc3ccc(O)cc3)C(=O)N(Cc3ccc(Cl)c4cccnc34)C[C@@H]2N1C(=O)NCc1ccccc1 [Compound 137]
9.7	CN1CC(=O)N2[C@@H](Cc3ccc(O)cc3)C(=O)N(Cc3ccc4ccccc4n3)C[C@@H]2N1C(=O)NCc1ccccc1 [Compound 39]
10.6 ± 0.5	CCCN1CC(=O)N2[C@@H](Cc3ccc(NC=O)cc3)C(=O)N(Cc3ccc(F)cc3F)C[C@@H]2N1C(=O)NCc1ccccc1 [Compound 160]
6.4 ± 0.4	CCCN1CC(=O)N2[C@@H](Cc3ccc(O)cc3)C(=O)N(Cc3cccc(N4CCOCC4)c3)C[C@@H]2N1C(=O)NCc1ccccc1 [Compound 124]
3.8 ± 1.2	CN1CC(=O)N2[C@@H](Cc3ccc(O)cc3)C(=O)N(Cc3cccc4cnn(Cc5cccc(N)c5)c34)C[C@@H]2N1C(=O)NCc1ccccc1 [Compound 92]
3	CN1CC(=O)N2[C@@H](Cc3ccc(O)cc3)C(=O)N(Cc3ccc(F)c4ccccc34)C[C@@H]2N1C(=O)NCc1ccccc1 [Compound 25]
4.2 ± 0.1	CCCN1CC(=O)N2[C@@H](Cc3ccc(O)cc3)C(=O)N(Cc3ccc(F)cc3F)C[C@@H]2N1C(=O)NCc1ccccc1 [Compound 157]
2.3 ± 0.2	C=CCN1CC(=O)N2[C@@H](Cc3ccc(O)cc3)C(=O)N(Cc3ccc(F)cc3F)C[C@@H]2N1C(=O)NCc1ccc(Cl)c(Cl)c1 [Compound 179]
1.8 ± 0.3	C#CCN1CC(=O)N2[C@@H](Cc3ccc(O)cc3)C(=O)N(Cc3ccc4ncsc4c3)C[C@@H]2N1C(=O)NCc1ccccc1 [Compound 141]
7.1	COc1ccccc1CN1C[C@H]2N(C(=O)CN(C)N2C(=O)NCc2ccccc2)[C@@H](Cc2ccc(O)cc2)C1=O [Compound 26]
5.3 ± 0.4	C=CCN1CC(=O)N2[C@@H](Cc3ccc(O)cc3)C(=O)N(Cc3ccc(F)cc3F)[C@@H](C)[C@@H]2N1C(=O)NCc1ccccc1 [Compound 177]
4.4	CCN(C)c1cccc(CN2C[C@H]3N(C(=O)CN(C)N3C(=O)NCc3ccccc3)[C@@H](Cc3ccc(O)cc3)C2=O)c1 [Compound 46]
7.6 ± 0.6	CN1CC(=O)N2[C@@H](Cc3ccc(O)cc3)C(=O)N(Cc3cccc4cnn(CCN5CCOCC5)c34)C[C@@H]2N1C(=O)NCc1ccccc1 [Compound 94]
0.4 ± 0.1	C=CCN1CC(=O)N2[C@@H](Cc3ccc(O)cc3)C(=O)N(Cc3cccc4cccnc34)C[C@@H]2N1C(=O)NCc1ccccc1 [Compound 128]
11.9	CN1CC(=O)N2[C@@H](Cc3ccc(O)cc3)C(=O)N(Cc3ccccc3SC(F)(F)F)C[C@@H]2N1C(=O)NCc1ccccc1 [Compound 31]
6.9 ± 1.7	CC(c1cc(N(C)C)cc(C(F)(F)F)c1)N1C[C@H]2N(C(=O)CN(C)N2C(=O)NCc2ccccc2)[C@@H](Cc2ccc(O)cc2)C1=O (stereo partly drawn) [Compound 60]
0.6 ± 0.2	C=CCN1CC(=O)N2[C@@H](Cc3ccc(O)cc3)C(=O)N(Cc3cccc(OC)c3OC)C[C@@H]2N1C(=O)NCc1ccccc1 [Compound 214]
5.1	C[C@H](c1ccccc1)N1CC2N(C(=O)CN(C)N2C(=O)NCc2ccccc2)[C@@H](Cc2ccc(O)cc2)C1=O (stereo partly drawn) [Compound 20]
0.4 ± 0.04	C#CCN1CC(=O)N2[C@@H](Cc3ccc(O)cc3)C(=O)N(Cc3cccc4cccnc34)C[C@@H]2N1C(=O)NCc1ccccc1 [Compound 114]
8.1 ± 0.8	CN(C)CCn1ncc2cccc(CN3C[C@H]4N(C(=O)CN(C)N4C(=O)NCc4ccccc4)[C@@H](Cc4ccc(O)cc4)C3=O)c21 [Compound 87]
1.5 ± 0.1	C=CCN1CC(=O)N2[C@@H](Cc3ccc(O)cc3)C(=O)N(Cc3ccccc3)C[C@@H]2N1C(=O)NCc1ccc(Cl)c(Cl)c1 [Compound 207]
10.3 ± 1.5	CCCN1CC(=O)N2[C@@H](Cc3ccc(O)cc3)C(=O)N(Cc3ccc(Cl)c(N(C)C)c3)C[C@@H]2N1C(=O)NCc1ccccc1 [Compound 126]
7.2 ± 1.4	CCCN(C)c1cccc(CN2C[C@H]3N(C(=O)CN(C)N3C(=O)NCc3ccccc3)[C@@H](Cc3ccc(O)cc3)C2=O)c1 [Compound 55]
1.3 ± 0.1	C=CCN1CC(=O)N2[C@@H](Cc3ccc(O)cc3)C(=O)N(Cc3cc(C)cc4c3N(C)CCO4)C[C@@H]2N1C(=O)NCc1ccccc1 [Compound 167]
3.9 ± 0.3	[2H]C([2H])(c1ccc(O)cc1)[C@H]1C(=O)N(Cc2cccc3ccccc23)C[C@H]2N1C(=O)CN(C)N2C(=O)NCc1ccccc1 [Compound 165]

SMILES	IC50 [µM]
C=CCN1CC(=O)N2[C@@H](Cc3ccc(OP(=O)(O)O)cc3)C(=O)N(Cc3cc(F)c(F)cc3N(C)C)C[C@@H]2N1C(=O)NCc1ccccc1 [Compound 163]	1.7 ± 0.5
C#CCN1CC(=O)N2[C@@H](Cc3ccc(O)cc3)C(=O)N(Cc3ccc(F)cc3F)[C@@H](C)[C@@H]2N1C(=O)NCc1ccccc1 [Compound 111]	7.2 ± 0.8
